Assay results published in ChEMBL document CHEMBL1201862, “PubChem BioAssay data set” (2004).
Calls of active or inactive are those of the source.

Columns and labels:
Assay type in all cases: functional
[1] = target: Cyclin-dependent kinase 9 (Homo sapiens, UniProt P50750);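 further: value from the CDK9 entry of a kinome-spanning kinase panel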
[2] = target: T1, Mitogen-activated protein kinase kinase kinase kinase 2 (Homo sapiens, UniProt Q12851);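 further: measured as one member of a kinome-wide kinase panel, with MAP4K2 as the panel entry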
T1 sequence (Q12851 whole entry): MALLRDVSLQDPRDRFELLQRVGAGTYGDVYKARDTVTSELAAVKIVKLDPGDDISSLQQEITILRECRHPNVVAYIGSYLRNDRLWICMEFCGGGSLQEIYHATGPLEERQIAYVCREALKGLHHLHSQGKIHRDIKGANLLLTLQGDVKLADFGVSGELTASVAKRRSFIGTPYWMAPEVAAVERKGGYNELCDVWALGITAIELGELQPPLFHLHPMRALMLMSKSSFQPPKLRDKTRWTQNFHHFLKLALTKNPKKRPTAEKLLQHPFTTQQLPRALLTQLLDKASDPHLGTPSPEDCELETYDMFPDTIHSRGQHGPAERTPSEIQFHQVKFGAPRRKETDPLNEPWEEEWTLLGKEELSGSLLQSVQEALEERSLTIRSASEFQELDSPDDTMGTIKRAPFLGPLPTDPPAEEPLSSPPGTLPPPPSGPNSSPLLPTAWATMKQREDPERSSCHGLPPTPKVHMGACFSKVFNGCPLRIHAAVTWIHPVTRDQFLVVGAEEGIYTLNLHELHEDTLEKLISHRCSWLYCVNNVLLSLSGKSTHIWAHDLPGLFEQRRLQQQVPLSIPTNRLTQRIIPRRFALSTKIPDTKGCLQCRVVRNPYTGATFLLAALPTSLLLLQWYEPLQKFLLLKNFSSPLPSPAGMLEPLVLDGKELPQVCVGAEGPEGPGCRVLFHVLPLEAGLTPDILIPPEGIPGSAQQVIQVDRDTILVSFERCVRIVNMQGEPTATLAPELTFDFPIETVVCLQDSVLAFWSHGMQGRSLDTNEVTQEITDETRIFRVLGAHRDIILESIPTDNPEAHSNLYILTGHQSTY

[3] = target: Dual specificity mitogen-activated protein kinase kinase 1 (Homo sapiens, UniProt Q02750); test: Navigating the Kinome. Panel member name: MAP2K1
Sequence of Dual specificity mitogen-activated protein kinase kinase 1 (Q02750 whole entry): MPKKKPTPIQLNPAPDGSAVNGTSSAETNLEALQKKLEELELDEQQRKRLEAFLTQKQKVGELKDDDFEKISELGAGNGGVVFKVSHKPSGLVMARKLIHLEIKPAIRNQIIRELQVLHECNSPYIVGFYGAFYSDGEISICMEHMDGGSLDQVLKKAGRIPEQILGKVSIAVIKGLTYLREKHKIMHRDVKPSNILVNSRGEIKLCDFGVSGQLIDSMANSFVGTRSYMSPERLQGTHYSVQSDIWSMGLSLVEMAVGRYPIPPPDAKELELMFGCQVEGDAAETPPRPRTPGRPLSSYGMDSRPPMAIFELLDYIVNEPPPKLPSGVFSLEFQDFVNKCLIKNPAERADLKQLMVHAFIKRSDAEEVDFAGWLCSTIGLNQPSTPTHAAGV

[4] = target: Dual specificity protein kinase CLK4 (Homo sapiens, UniProt Q9HAZ1)
Sequence of Dual specificity protein kinase CLK4 (Q9HAZ1 whole entry): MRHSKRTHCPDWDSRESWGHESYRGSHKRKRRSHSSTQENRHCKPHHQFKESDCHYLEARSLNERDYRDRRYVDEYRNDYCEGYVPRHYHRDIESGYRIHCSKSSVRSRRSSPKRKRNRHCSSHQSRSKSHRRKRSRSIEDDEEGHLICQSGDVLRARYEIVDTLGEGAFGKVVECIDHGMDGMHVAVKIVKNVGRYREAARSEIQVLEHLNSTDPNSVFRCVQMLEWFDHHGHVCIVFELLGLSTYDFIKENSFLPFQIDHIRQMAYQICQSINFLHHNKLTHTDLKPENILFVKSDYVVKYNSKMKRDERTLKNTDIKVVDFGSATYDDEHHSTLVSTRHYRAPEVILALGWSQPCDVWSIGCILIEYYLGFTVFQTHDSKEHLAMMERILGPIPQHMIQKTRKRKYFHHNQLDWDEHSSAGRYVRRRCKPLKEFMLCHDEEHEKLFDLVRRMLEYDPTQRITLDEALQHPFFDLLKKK

[5] = target: T2, Serine/threonine-protein kinase D3 (Homo sapiens, UniProt O94806);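 further: determined within a kinase panel screen, with PRKCN as the panel member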
T2 sequence (O94806 whole entry): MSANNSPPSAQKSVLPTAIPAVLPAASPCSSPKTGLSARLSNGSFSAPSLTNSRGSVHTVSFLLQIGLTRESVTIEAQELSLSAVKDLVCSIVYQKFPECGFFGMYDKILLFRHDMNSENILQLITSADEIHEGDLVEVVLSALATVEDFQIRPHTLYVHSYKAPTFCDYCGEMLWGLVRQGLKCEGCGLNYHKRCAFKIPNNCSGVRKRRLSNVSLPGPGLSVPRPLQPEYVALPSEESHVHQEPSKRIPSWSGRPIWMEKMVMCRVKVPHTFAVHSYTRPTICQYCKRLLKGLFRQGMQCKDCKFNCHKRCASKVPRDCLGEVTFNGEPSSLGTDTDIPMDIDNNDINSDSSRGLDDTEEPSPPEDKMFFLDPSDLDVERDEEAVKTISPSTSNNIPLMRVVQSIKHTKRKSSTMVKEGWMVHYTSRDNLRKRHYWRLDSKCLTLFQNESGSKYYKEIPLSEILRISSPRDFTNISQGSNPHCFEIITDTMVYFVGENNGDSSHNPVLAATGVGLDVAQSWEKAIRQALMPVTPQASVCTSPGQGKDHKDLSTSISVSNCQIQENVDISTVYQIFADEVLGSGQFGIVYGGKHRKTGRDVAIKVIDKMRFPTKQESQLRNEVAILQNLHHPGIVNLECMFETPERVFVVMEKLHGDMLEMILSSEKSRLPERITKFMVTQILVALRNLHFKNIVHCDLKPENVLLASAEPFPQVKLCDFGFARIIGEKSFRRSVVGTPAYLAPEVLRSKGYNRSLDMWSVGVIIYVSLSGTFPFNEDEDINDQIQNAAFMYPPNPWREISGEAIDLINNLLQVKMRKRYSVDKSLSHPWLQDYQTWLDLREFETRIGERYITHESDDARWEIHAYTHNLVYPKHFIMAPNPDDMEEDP

[6] = target: Hepatocyte growth factor receptor (Homo sapiens, UniProt P08581);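 further: kinase panel profiling across the kinome, with MET as the panel member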
Sequence of Hepatocyte growth factor receptor (P08581 whole entry): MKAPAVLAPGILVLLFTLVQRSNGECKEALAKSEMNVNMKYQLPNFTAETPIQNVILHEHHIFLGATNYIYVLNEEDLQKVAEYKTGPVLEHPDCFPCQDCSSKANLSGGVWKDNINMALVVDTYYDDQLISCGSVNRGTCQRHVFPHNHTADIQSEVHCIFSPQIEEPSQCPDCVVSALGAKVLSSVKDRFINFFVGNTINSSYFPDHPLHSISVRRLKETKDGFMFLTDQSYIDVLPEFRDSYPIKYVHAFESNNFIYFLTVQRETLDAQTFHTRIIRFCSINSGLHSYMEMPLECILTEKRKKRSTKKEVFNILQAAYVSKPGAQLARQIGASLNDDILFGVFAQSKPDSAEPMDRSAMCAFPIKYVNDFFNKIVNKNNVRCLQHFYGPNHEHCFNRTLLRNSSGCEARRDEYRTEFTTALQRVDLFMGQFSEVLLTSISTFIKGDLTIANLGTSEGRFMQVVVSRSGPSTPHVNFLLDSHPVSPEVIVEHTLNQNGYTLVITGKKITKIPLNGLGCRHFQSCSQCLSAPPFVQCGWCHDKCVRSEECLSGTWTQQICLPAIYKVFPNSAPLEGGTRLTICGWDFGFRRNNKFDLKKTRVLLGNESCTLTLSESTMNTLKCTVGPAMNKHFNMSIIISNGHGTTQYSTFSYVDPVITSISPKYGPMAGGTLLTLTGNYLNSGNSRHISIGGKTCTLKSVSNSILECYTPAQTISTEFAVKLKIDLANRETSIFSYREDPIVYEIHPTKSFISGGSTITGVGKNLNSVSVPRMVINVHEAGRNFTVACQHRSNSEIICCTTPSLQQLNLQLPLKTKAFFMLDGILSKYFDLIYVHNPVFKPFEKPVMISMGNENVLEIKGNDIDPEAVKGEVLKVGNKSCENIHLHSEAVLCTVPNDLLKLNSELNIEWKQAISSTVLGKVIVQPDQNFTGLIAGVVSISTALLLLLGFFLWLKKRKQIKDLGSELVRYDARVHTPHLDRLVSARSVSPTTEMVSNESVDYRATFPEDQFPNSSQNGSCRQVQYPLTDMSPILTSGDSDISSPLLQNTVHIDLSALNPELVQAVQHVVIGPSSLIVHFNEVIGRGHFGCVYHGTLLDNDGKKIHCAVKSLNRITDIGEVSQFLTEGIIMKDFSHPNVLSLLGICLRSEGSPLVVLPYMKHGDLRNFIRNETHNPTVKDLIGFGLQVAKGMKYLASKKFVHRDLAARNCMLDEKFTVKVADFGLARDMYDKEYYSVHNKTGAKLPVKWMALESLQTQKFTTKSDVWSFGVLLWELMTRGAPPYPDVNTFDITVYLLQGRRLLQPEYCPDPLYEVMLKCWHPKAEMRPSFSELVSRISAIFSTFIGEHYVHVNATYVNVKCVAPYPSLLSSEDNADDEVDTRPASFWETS

[7] = target: Insulin-like growth factor 1 receptor (Homo sapiens, UniProt P08069); test: Navigating the Kinome. Panel member name: IGF1R
[8] = target: Cyclin-dependent kinase 7 (Homo sapiens, UniProt P50613);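 further: value comes from a kinome-wide kinase profiling panel in which CDK7 is one member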
Sequence of Cyclin-dependent kinase 7 (P50613 whole entry): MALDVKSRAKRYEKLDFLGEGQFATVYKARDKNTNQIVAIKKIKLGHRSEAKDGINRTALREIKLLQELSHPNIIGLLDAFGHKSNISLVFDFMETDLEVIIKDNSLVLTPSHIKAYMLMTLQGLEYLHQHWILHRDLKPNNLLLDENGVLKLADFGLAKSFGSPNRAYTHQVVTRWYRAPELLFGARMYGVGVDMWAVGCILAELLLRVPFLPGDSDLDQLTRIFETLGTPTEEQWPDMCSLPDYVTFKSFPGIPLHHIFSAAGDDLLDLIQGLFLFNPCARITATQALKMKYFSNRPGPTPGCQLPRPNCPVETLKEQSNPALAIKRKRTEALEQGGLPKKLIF

[9] = target: Activated CDC42 kinase 1 (Homo sapiens, UniProt Q07912); test: Navigating the Kinome. Panel member name: ACK1
Sequence of Activated CDC42 kinase 1 (Q07912 whole entry): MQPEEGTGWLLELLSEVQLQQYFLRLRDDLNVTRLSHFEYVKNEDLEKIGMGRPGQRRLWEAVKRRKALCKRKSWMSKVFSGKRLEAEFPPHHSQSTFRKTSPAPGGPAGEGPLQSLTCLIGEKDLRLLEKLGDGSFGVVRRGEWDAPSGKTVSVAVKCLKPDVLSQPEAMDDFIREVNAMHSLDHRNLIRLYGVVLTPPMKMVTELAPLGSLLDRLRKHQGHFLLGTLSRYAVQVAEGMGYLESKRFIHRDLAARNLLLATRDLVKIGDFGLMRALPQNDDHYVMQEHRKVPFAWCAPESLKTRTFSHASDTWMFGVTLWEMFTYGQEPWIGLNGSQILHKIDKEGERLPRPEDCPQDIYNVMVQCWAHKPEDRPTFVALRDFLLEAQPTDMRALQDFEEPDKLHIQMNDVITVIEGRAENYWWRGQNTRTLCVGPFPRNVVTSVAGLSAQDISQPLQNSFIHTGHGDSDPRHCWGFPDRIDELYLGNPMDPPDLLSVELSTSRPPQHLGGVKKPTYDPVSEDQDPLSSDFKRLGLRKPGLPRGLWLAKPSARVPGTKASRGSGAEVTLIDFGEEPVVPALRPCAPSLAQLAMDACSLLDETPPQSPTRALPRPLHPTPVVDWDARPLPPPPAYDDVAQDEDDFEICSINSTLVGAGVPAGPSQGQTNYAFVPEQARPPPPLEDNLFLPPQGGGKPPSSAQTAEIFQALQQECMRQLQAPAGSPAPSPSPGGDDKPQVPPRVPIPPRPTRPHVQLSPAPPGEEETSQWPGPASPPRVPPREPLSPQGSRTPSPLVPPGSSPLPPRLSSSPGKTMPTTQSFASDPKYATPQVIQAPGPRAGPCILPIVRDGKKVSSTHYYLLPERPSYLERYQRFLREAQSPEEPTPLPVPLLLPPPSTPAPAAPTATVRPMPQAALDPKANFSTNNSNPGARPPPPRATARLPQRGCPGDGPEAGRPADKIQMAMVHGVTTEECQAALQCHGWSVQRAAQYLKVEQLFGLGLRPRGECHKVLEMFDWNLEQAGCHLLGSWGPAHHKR

Sequence of Cyclin-dependent kinase 9 (P50750 whole entry): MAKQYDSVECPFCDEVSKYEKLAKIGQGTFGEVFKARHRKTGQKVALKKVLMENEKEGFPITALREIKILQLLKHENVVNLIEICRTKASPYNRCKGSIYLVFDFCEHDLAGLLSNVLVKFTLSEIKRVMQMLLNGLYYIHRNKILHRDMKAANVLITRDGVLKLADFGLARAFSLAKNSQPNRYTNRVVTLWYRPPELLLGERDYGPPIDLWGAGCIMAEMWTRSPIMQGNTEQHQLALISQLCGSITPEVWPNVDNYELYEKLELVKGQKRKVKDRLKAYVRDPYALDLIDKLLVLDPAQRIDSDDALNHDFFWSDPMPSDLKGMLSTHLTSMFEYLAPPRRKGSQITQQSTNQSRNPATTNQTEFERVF

Ki [1]	Ki [2]	Ki [3]	Ki [4]	Ki [5]	Ki [6]	Ki [7]	Ki [8]	Ki [9]	Compound
> 1.58 µM (inactive)	> 2.51 µM (inactive)	> 3.16 µM (inactive)	> 2.51 µM (inactive)	> 3.98 µM (inactive)	> 2.51 µM (inactive)	> 2.51 µM (inactive)	> 3.98 µM (inactive)	> 3.98 µM (inactive)	COc1cccc(C(C)NC(=O)c2sc(-c3ccncc3)nc2C)c1 (configuration not stated)
> 1.58 µM (inactive)	> 2.51 µM (inactive)	> 3.16 µM (inactive)	0.0126 µM (active)	> 3.98 µM (inactive)	> 2.51 µM (inactive)	> 2.51 µM (inactive)	> 3.98 µM (inactive)	> 3.98 µM (inactive)	CCCCC(=O)Nc1cc(-c2c[nH]c3ncccc23)cc(Cl)n1
> 1.58 µM (inactive)	> 2.51 µM (inactive)	> 3.16 µM (inactive)	2.51 µM (active)	2.51 µM (active)	> 2.51 µM (inactive)	1.26 µM (active)	> 3.98 µM (inactive)	> 3.98 µM (inactive)	Oc1ccc(-c2nc(-c3ccncc3)c(-c3ccc(F)cc3)[nH]2)cc1 [SB-202190]
